Broadly, the melting point is the temperature, or range, at which the solid turns liquid. The compound `CCNC(=O)Nc1cc(-c2c(-c3ccc(F)c(C)c3)nc3c(C)cc(Cl)nn23)ccn1` [Example 48-1, N-{4-[6-chloro-2-(4-fluoro-3-methylphenyl)-8-methylimidazo[1,2-b]pyridazin-3-yl]-2-pyridyl}-N′-ethylurea] gave a melting point of 229 to 230 °C. The figure for `CCNC(=O)Nc1cc(-c2c(-c3ccc(F)c(C)c3)nc3cc(C(C)(C)C)c(Cl)nn23)ccn1` [Example 48-2, N-{4-[7-tert-butyl-6-chloro-2-(4-fluoro-3-methylphenyl)imidazo[1,2-b]pyridazin-3-yl]-2-pyridyl}-N′-ethylurea] is 246 to 247 °C; for `CCNC(=O)Nc1cc(-c2c(-c3ccc(F)c(C)c3)nc3c(C)ccnn23)ccn1` [Example 48-3, N-{4-[2-(4-fluoro-3-methylphenyl)-8-methylimidazo[1,2-b]pyridazin-3-yl]-2-pyridyl}-N′-ethylurea] it is 240 to 241 °C; for `CCNC(=O)Nc1cc(-c2c(-c3ccc(F)c(C)c3)nc3cc(C(C)(C)C)cnn23)ccn1` [Example 48-4, N-{4-[7-tert-butyl-2-(4-fluoro-3-methylphenyl)imidazo[1,2-b]pyridazin-3-yl]-2-pyridyl}-N′-ethylurea] it is 212 to 213 °C. As for `CCNC(=O)Nc1cc(-c2c(-c3ccc(F)c(C)c3)nc3ccc(NC)nn23)ccn1` [Example 48-5, N-ethyl-N′-{4-[2-(4-fluoro-3-methylphenyl)-6-(methylamino)imidazo[1,2-b]pyridazin-3-yl]pyridin-2-yl}urea], the melting point is 263 to 264 °C. `Cc1cc(-c2nc3cccnn3c2-c2ccnc(NC(=O)NC3CC3)c2)ccc1F` [Example 51-1, N-cyclopropyl-N′-{4-[2-(4-fluoro-3-methylphenyl)imidazo[1,2-b]pyridazin-3-yl]pyridin-2-yl}urea]: the melting point was 222 to 223 °C. Then `Cc1cc(-c2nc3cccnn3c2-c2ccnc(NC(=O)NCC(F)(F)F)c2)ccc1F` [Example 51-2, N-{4-[2-(4-fluoro-3-methylphenyl)imidazo[1,2-b]pyridazin-3-yl]pyridin-2-yl}-N′-(2,2,2-trifluoroethyl)urea], with 229 to 230 °C; and `Cc1cc(-c2nc3cccnn3c2-c2ccnc(NC(=O)NCC(C)C)c2)ccc1F` [Example 51-3, N-{4-[2-(4-fluoro-3-methylphenyl)imidazo[1,2-b]pyridazin-3-yl]pyridin-2-yl}-N′-isobutylurea], with 213 to 214 °C; and `CCC(CC)NC(=O)Nc1cc(-c2c(-c3ccc(F)c(C)c3)nc3cccnn23)ccn1` [Example 51-4, N-(1-ethylpropyl)-N′-{4-[2-(4-fluoro-3-methylphenyl)imidazo[1,2-b]pyridazin-3-yl]pyridin-2-yl}urea], with 187 to 188 °C. The figure for `Cc1cc(-c2nc3cccnn3c2-c2ccnc(NC(=O)NCCS(C)(=O)=O)c2)ccc1F` [Example 51-5, N-{4-[2-(4-fluoro-3-methylphenyl)imidazo[1,2-b]pyridazin-3-yl]pyridin-2-yl}-N′-[2-(methylsulfonyl)ethyl]urea] is 204 to 205 °C; for `CSc1ccc(NC(=O)Nc2cc(-c3c(-c4ccc(F)c(C)c4)nc4cccnn34)ccn2)cc1` [Example 51-6, N-{4-[2-(4-fluoro-3-methylphenyl)imidazo[1,2-b]pyridazin-3-yl]pyridin-2-yl}-N′-[4-(methylthio)phenyl]urea] it is 219 to 220 °C. Then `Cc1cc(-c2nc3cccnn3c2-c2ccnc(NC(=O)Nc3cccnc3)c2)ccc1F` [Example 51-7, N-{4-[2-(4-fluoro-3-methylphenyl)imidazo[1,2-b]pyridazin-3-yl]pyridin-2-yl}-N′-(pyridin-3-yl)urea], with 233 to 234 °C.

`Cc1cc(NC(=O)Nc2cc(-c3c(-c4ccc(F)c(C)c4)nc4cccnn34)ccn2)[nH]n1` [Example 51-8, N-{4-[2-(4-fluoro-3-methylphenyl)imidazo[1,2-b]pyridazin-3-yl]pyridin-2-yl}-N′-(3-methyl-1H-pyrazol-5-yl)urea] came in with a melting point of 239 to 240 °C. The figure for `Cc1cc(-c2nc3cccnn3c2-c2ccnc(NC(N)=O)c2)ccc1F` [Example 51-9, N-{4-[2-(4-fluoro-3-methylphenyl)imidazo[1,2-b]pyridazin-3-yl]pyridin-2-yl}urea] is 254 to 255 °C.

As to `Cc1cc(-c2nc3cccnn3c2-c2ccnc(NC(=O)NC3CCC(O)CC3)c2)ccc1F` (stereo not shown) [Example 51-10, N-{4-[2-(4-fluoro-3-methylphenyl)imidazo[1,2-b]pyridazin-3-yl]pyridin-2-yl}-N′-(4-hydroxycyclohexyl)urea], the melting point fell in the range of 218 to 220 °C. In the case of `Cc1cc(-c2nc3cccnn3c2-c2ccnc(NC(=O)NCC(C)O)c2)ccc1F` (stereo not shown) [Example 51-13, N-{4-[2-(4-fluoro-3-methylphenyl)imidazo[1,2-b]pyridazin-3-yl]pyridin-2-yl}-N′-(2-hydroxypropyl)urea], the melting point was 139 to 140 °C. The figure for `Cc1cc(-c2nc3cccnn3c2-c2ccnc(NC(=O)NC3CCOCC3)c2)ccc1F` [Example 51-15, N-{4-[2-(4-fluoro-3-methylphenyl)imidazo[1,2-b]pyridazin-3-yl]pyridin-2-yl}-N′-(tetrahydro-2H-pyran-4-yl)urea] is 240 to 241 °C. For the compound `Cc1cccc(-c2nc3cccnn3c2-c2ccnc(NC(=O)NC3CCOCC3)c2)c1` [Example 52, N-{4-[2-(3-Methylphenyl)imidazo[1,2-b]pyridazin-3-yl]pyridin-2-yl}-N′-(tetrahydro-2H-pyran-4-yl)urea], the melting point worked out at 222 °C.

`COc1ccc2nc(-c3ccc(F)c(C)c3)c(-c3ccnc(NC(=O)NC(C)C)c3)n2n1` [Example 53, N-{4-[2-(4-Fluoro-3-methylphenyl)-6-methoxyimidazo[1,2-b]pyridazin-3-yl]pyridin-2-yl}-N′-isopropylurea] registered a melting point of 233 to 234 °C. In the case of `CSc1ccc2nc(-c3ccc(F)c(C)c3)c(-c3ccnc(NC(=O)NC(C)C)c3)n2n1` [Example 54, N-{4-[2-(4-Fluoro-3-methylphenyl)-6-(methylthio)imidazo[1,2-b]pyridazin-3-yl]pyridin-2-yl}-N′-isopropylurea], the melting point fell in the range of 241 to 242 °C. In turn, `Cc1cc(-c2nc3cccnn3c2-c2ccnc(N3CCCNC3=O)c2)ccc1F` [Example 55, 1-{4-[2-(4-Fluoro-3-methylphenyl)imidazo[1,2-b]pyridazin-3-yl]pyridin-2-yl}tetrahydropyrimidine-2-(1H)-one] had a melting point of 213 to 215 °C. In the case of `Cc1cc(-c2nc3cccnn3c2-c2ccnc(NC(=O)CCS(C)(=O)=O)c2)ccc1F` [Example 56, N-{4-[2-(4-Fluoro-3-methylphenyl)imidazo[1,2-b]pyridazin-3-yl]pyridin-2-yl}-3-(methylsulfonyl)propanamide], the melting point fell in the range of 227 to 228 °C. `Cc1cc(-c2nc3cccnn3c2-c2ccnc(NC(=O)CS(C)(=O)=O)c2)ccc1F` [Example 57-1, N-{4-[2-(4-fluoro-3-methylphenyl)imidazo[1,2-b]pyridazin-3-yl]pyridin-2-yl}-2-(methylsulfonyl)acetamide]: the melting point was 240 to 241 °C. Then `Cc1cc(-c2nc3c([S+](C)[O-])cc(Cl)nn3c2-c2ccnc(N)c2)ccc1F` (stereo not shown) [Example 57-2, 4-[6-chloro-2-(4-fluoro-3-methylphenyl)-8-(methylsulfinyl)imidazo[1,2-b]pyridazin-3-yl]-2-pyridylamine], with 216 to 217 °C. The figure for `CC(=O)CNC(=O)Nc1cc(-c2c(-c3ccc(F)c(C)c3)nc3cccnn23)ccn1` [Example 63, N-{4-[2-(4-Fluoro-3-methylphenyl)imidazo[1,2-b]pyridazin-3-yl]pyridin-2-yl}-N′-(2-oxopropyl)urea] is 208 to 209 °C; for `Cc1cccc(-c2nc3ccc(Cl)nn3c2-c2ccnc(Nc3ccc(F)cc3C)c2)c1` [Example Compound 3-1, 4-[6-chloro-2-(3-methylphenyl)imidazo[1,2-b]pyridazin-3-yl]-N-(4-fluoro-2-methylphenyl)pyridin-2-amine] it is 191 to 192 °C; for `Cc1cccc(-c2nc3ccc(Cl)nn3c2-c2ccnc(Nc3ccccc3C)c2)c1` [Example Compound 3-2, 4-[6-chloro-2-(3-methylphenyl)imidazo[1,2-b]pyridazin-3-yl]-N-(2-methylphenyl)pyridin-2-amine] it is 191 to 192 °C. For `Cc1cccc(-c2nc3cccnn3c2-c2ccnc(NC3CCCCC3)c2)c1` [Example Compound 6-1, N-cyclohexyl-4-[2-(3-methylphenyl)imidazo[1,2-b]pyridazin-3-yl]pyridin-2-amine], the melting point lay within 169 to 170 °C. Regarding `Cc1cccc(-c2nc3cccnn3c2-c2ccnc(NC3CCCC3)c2)c1` [Example Compound 6-2, N-cyclopentyl-4-[2-(3-methylphenyl)imidazo[1,2-b]pyridazin-3-yl]pyridin-2-amine], the melting point was 130 to 131 °C. The figure for `Cc1cccc(-c2nc3cccnn3c2-c2ccnc(NC3CCC3)c2)c1` [Example Compound 6-3, N-cyclobutyl-4-[2-(3-methylphenyl)imidazo[1,2-b]pyridazin-3-yl]pyridin-2-amine] is 152 to 153 °C; for `Cc1cccc(-c2nc3cccnn3c2-c2ccnc(NC3CC3)c2)c1` [Example Compound 6-4, N-cyclopropyl-4-[2-(3-methylphenyl)imidazo[1,2-b]pyridazin-3-yl]pyridin-2-amine] it is 202 to 203 °C. The figure for `Cc1cccc(-c2nc3cccnn3c2-c2ccnc(NCCO)c2)c1` [Example Compound 6-5, 2-({4-[2-(3-methylphenyl)imidazo[1,2-b]pyridazin-3-yl]pyridin-2-yl}amino)ethanol] is 176 to 177 °C; for `COc1ccccc1Nc1cc(-c2c(-c3cccc(C)c3)nc3cccnn23)ccn1` [Example Compound 6-6, N-(2-methoxyphenyl)-4-[2-(3-methylphenyl)imidazo[1,2-b]pyridazin-3-yl]pyridin-2-amine] it is 157 to 158 °C. Then `Cc1cccc(-c2nc3cccnn3c2-c2ccnc(Nc3cccc(C)c3C)c2)c1` [Example Compound 6-7, N-(2,3-dimethylphenyl)-4-[2-(3-methylphenyl)imidazo[1,2-b]pyridazin-3-yl]pyridin-2-amine], with 187 to 188 °C.

The record behind these values is patent US20080167314A1, “Condensed Imidazole Compound And Use Thereof” (priority 2004, published 2008).
